From PMC6053381, “Novel 2-phenyloxypyrimidine derivative induces apoptosis and autophagy via inhibiting PI3K pathway and activating MAPK/ERK signaling in hepatocellular carcinoma cells” (Scientific Reports, 2018)

Assays:
PDGFRα = PDGFRα (Homo sapiens, UniProt P16234); assay: PDGFR kinase assay, Caliper microfluidic mobility shift; format: biochemical; details: compound at 1 µM; averages of two separate experiments
Procedure: (§1) In vitro inhibitory activities of all compounds at 1 μM against PDGFRα and PDGFRβ were evaluated using Caliper microfluidic mobility shift technology. […] At the same concentration, only E5 inhibited greater than 50% of PDGFRβ activity (Fig. 2B).
(§2) PDGFR kinase activity was measured using Caliper microfluidic mobility shift technology. Briefly, 2 μL compound solution (25 μM) in 25% DMSO per well were added into the 384 well microtiter plates. Then, 10 μL per well of enzyme solution (100 mM HEPES, 10 mM MgCl2, Brij35 (30%) 100 μL, 1 mM DTT, 20 ng enzyme) was added. After a brief centrifugation at 1,000 rpm, the kinase reactions were started by addition of 38 μL per well of peptide/ATP-solution (40 μM ATP, 6.5 μM peptide 5′-FAM-KKKKEEIYFFF-NH2, Tris-HCl buffer, pH 7.0) incubated at 30 °C for 60 min and stopped by the addition of 20 μL 35 mM EDTA per well. The electrophoretic separation of the phosphorylated and non-phosphorylated peptides was then carried out on LabChip EZ Reader II (Caliper Life Sciences). All other kinase reactions were carried out as previously reported using the Kinase-Glo Plus or ADP-Glo assay. Kinase inhibition rates were calculated per manufacturer’s instructions.

PDGFRβ = PDGFRβ (Homo sapiens, UniProt P09619); assay: as above; format: biochemical; details: compound at 1 µM; averages of two separate experiments
Sequence of PDGFRβ (P09619 33-1106): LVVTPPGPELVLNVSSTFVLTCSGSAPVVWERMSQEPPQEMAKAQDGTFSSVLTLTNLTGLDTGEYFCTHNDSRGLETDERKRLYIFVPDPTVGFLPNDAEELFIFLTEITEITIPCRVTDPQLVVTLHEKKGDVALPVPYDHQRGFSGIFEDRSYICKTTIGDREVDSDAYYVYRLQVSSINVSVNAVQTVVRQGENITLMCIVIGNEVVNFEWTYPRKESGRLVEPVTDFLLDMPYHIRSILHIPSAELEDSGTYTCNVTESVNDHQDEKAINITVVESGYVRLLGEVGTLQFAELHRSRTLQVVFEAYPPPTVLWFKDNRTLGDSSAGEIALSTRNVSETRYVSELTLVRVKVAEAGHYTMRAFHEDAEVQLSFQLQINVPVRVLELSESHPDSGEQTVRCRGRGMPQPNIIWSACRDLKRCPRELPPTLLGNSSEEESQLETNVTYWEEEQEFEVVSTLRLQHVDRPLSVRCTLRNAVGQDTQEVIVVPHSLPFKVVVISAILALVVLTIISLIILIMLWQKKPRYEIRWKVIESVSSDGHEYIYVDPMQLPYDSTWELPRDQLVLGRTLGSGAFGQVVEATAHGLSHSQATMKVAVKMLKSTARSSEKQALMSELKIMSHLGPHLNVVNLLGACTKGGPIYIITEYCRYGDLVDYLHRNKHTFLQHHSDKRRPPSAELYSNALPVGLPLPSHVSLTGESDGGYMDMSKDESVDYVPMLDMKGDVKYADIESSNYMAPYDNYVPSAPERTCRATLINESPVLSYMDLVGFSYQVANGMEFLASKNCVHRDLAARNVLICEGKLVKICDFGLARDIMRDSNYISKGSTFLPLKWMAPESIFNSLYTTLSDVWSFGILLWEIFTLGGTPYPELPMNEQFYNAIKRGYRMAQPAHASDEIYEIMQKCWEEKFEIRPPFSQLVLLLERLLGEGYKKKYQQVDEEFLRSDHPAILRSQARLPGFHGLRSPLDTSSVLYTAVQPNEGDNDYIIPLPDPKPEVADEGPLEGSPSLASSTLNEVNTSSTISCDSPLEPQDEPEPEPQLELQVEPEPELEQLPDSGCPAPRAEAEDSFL
Procedure: as §1, §2

MHCC97-L = assay: CellTiter-Glo luminescent cell viability assay; format: cell-based; details: 120 h incubation, read-out: Anti-proliferative activity IC50 MHCC97-L
Excerpt: (§3) The in vitro antitumor activity of all compounds was screened against six HCC cell lines by CellTiter-Glo luminescent cell viability assay as described earlier. […] After a comprehensive assessment of PDGFR inhibition, cellular activity against HCC cells as well as potential druggability, E5 was chosen to investigate its kinase profiling, antitumor activity and molecular mechanism in the following study. […]
(§4) authenticated by using short tandem repeat (STR) matching analysis. No mycoplasma contamination was detected.
(§5) CellTiter-Glo luminescent cell viability assay
(§6) For experiments hepatocellular carcinoma cells were seeded at 4000 cells per well in 96-well plates. After overnight incubation, solution of compounds in DMSO at various concentrations were added to the cells and further incubated for 120 h. Cell viability was measured with the CellTiter-Glo Luminescent Cell Viability Assay (Promega) according to the manufacturer’s instructions. Luminescence was measured using an EnVision Multilabel Plate Reader (Perkin-Elmer). The cytotoxicity of the compounds was expressed as the percent age of luminescence relative to that of untreated cells . The concentration of compound producing 50% of cell proliferation (IC50) was calculated by nonlinear regression analysis of the response-concentration (log) curve, using the Graph-Pad Prism program package (Graph Pad Software; San Diego, CA). Results are expressed as the means of two […] experiments

SNU368 = assay: CellTiter-Glo luminescent cell viability assay; format: cell-based; details: 120 h incubation, read-out: Anti-proliferative activity IC50 SNU368
Excerpt: as §3, §4, §5, §6

Hep3B = assay: CellTiter-Glo luminescent cell viability assay; format: cell-based; details: 120 h incubation, read-out: Anti-proliferative activity IC50 Hep3B
Excerpt: as §3, §4, §5, §6

BEL7404 = assay: CellTiter-Glo luminescent cell viability assay; format: cell-based; details: 120 h incubation, read-out: Anti-proliferative activity IC50 BEL7404
Excerpt: as §3, §4, §5, §6

QGY-7703 = assay: CellTiter-Glo luminescent cell viability assay; format: cell-based; details: 120 h incubation, read-out: Anti-proliferative activity IC50 QGY-7703
Excerpt: as §3, §4, §5, §6

SMMC-7721 = assay: CellTiter-Glo luminescent cell viability assay; format: cell-based; details: 120 h incubation, read-out: Anti-proliferative activity IC50 SMMC-7721
Excerpt: as §3, §4, §5, §6

Sequence of PDGFRα (P16234 24-1089): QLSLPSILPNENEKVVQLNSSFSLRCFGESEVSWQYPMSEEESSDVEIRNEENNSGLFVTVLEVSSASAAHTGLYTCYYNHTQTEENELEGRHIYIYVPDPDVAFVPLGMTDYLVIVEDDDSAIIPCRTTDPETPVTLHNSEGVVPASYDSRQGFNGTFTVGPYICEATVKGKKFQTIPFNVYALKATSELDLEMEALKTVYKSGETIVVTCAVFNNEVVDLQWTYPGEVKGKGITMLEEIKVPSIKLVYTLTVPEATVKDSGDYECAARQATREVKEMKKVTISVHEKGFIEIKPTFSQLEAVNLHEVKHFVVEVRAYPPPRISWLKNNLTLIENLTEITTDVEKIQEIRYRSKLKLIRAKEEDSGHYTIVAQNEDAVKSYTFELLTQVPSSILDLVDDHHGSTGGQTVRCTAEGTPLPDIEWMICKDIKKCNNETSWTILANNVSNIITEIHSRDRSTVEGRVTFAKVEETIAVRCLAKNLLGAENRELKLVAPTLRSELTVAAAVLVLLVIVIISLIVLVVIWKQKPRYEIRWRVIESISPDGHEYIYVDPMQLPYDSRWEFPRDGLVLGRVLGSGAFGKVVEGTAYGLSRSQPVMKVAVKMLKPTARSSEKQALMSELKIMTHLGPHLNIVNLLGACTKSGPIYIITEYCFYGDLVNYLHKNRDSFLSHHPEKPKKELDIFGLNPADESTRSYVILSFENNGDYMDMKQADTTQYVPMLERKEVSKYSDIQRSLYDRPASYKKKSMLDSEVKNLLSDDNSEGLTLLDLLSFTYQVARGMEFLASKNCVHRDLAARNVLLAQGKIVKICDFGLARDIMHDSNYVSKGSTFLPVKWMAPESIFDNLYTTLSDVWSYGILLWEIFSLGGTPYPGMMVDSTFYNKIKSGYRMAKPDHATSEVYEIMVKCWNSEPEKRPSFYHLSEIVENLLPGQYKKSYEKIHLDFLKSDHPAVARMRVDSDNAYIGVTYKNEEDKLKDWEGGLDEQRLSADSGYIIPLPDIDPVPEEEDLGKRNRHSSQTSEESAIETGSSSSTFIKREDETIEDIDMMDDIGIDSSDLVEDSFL

Row | Compound | Inhibition effect (%) PDGFRα (PDGFRα) | Inhibition effect (%) PDGFRβ (PDGFRβ) | IC50 (MHCC97-L) | IC50 (SNU368) | IC50 (Hep3B) | IC50 (BEL7404) | IC50 (QGY-7703) | IC50 (SMMC-7721)
1 | Cc1ccc(NC(=O)c2cccc(Cl)c2)cc1Oc1nccc(-c2ccco2)n1 [D5] | 51.79% | 43.49% | 14.7 µM | 24 µM | 11.2 µM | 12.4 µM | 22.5 µM | 12.4 µM
2 | Cc1ccc(NC(=O)c2ccc(Cl)cc2)cc1Oc1nccc(-c2ccco2)n1 [D6] | 33.02% | 37.47% | 24.6 µM | 12.7 µM | 7.3 µM | 10.9 µM | 25.8 µM | 8.2 µM
3 | CC(=O)Nc1ccc(C)c(Oc2nccc(-c3cc4ccccc4o3)n2)c1 [E1] | 1.56% | 1.82% | 5.7 µM | 8.5 µM | 86.8 µM | 10.1 µM | 0.3 µM | 0.3 µM
4 | CCC(=O)Nc1ccc(C)c(Oc2nccc(-c3cc4ccccc4o3)n2)c1 [E2] | 19.06% | 10.10% | 5.5 µM | 13.2 µM | 74.6 µM | 8.2 µM | 0.4 µM | 0.2 µM
5 | Cc1ccc(NC(=O)c2ccco2)cc1Oc1nccc(-c2cc3ccccc3o2)n1 [E3] | -2.00% | 3.83% | 9.6 µM | 1.3 µM | 125 µM | 1.2 µM | 0.7 µM | 0.7 µM
6 | Cc1ccc(NC(=O)CN2CCN(C)CC2)cc1Oc1nccc(-c2cc3ccccc3o2)n1 [E6] | -1.24% | -0.44% | 16.7 µM | 31.6 µM | 11.7 µM | 38.1 µM | 29.5 µM | 27.7 µM
7 | Cc1ccc(NC(=O)CN2CCOCC2)cc1Oc1nccc(-c2cc3ccccc3o2)n1 [E7] | 18.56% | 19.39% | 59.1 µM | 14.7 µM | 9 µM | 5.9 µM | 10.3 µM | 4.6 µM
8 | Cc1ccc(NC(=O)CO)cc1Oc1nccc(-c2cc3ccccc3o2)n1 [E8] | 26.16% | 14.62% | 13.6 µM | 6.3 µM | 3.8 µM | 2.8 µM | 3.3 µM | 2.5 µM
9 | CC(=O)Nc1ccc(C)c(Oc2nccc(-c3cc4ccccc4n3C)n2)c1 [F1] | 6.37% | 2.32% | 48.4 µM | 29.3 µM | 31 µM | 37.1 µM | 195 µM | 34.5 µM
10 | CCC(=O)Nc1ccc(C)c(Oc2nccc(-c3cc4ccccc4n3C)n2)c1 [F2] | 12.21% | -4.46% | 31.8 µM | 29.1 µM | 33.8 µM | 19 µM | 51.9 µM | 27.9 µM
11 | Cc1ccc(NC(=O)c2ccco2)cc1Oc1nccc(-c2cc3ccccc3n2C)n1 [F3] | 24.14% | 25.67% | > 200 µM | 26.5 µM | 41.8 µM | 15.6 µM | 97.7 µM | 18.4 µM
